Measured values from patent US8309577B2, “Quinuclidine compounds as α-7 nicotinic acetylcholine receptor ligands” (Bristol-Myers Squibb Company, priority 2008, dated 2012).
Where two headings read alike, the source gives them in different places.

Legend:
[1] = molecular target: T1, α-7 nicotinic acetylcholine receptor channel expressed in HEK 293 cells (Rattus norvegicus, UniProt Q05941); assay: Ca2+-sensitive fluorescence-based FLIPR assay, α7 nicotinic ACh receptor channel function (agonist); format: cell-based
T1 construct: expressed in transfected cells
T1 sequence (Q05941 23-502): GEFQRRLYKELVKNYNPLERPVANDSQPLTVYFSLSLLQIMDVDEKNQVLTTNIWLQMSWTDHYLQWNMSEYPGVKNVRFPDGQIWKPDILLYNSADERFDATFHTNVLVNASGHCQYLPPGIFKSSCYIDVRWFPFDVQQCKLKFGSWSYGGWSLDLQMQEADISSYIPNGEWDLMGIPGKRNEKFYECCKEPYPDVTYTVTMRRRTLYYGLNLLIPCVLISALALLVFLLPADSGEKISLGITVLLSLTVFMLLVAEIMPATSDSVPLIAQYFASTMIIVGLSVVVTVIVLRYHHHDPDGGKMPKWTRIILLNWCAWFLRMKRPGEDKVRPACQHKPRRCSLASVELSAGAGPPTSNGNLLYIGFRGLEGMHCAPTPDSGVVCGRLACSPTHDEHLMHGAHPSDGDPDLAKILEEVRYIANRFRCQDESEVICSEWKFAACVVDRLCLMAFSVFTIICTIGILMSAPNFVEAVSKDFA
How it was run: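 Potency and efficacy derived from kinetic FLIPR Ca²⁺-flux fluorescence, recorded 3 min after compound addition in Hanks buffer following a 10 s baseline.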

[2] = tested on: mucosal mast cells; details: Kageyama-Yahara et al. 2008; cited from earlier work
[3] = FLIPR α7 activity rating (EC50, nM), Table 1, HEK 293 cells, agonist Ca2+ flux
[4] = FLIPR α7 (EC50, nM), Table 1, HEK 293 cells, agonist Ca2+ flux
[5] = FLIPR α7 activity rating (EC50, nM), Table Ib, HEK 293 cells, agonist Ca2+ flux

Compound	EC50 [1, 3]	also measured
FC(F)Oc1ccc2nc(NC3=NC[C@@]4(CN5CCC4CC5)O3)sc2c1 [Example 22, (R)—N-(6-(Difluoromethoxy)benzo[d]thiazol-2-yl)-4H-1′-azaspiro[oxazole-5,3′-bicyclo[2.2.2]octan]-2-amine]	100 to 1000 nM	melting point: 223 to 225 °C
FC(F)Oc1cc(NC2=NC[C@@]3(CN4CCC3CC4)O2)ncn1 [Example 144]	< 100 nM	melting point: 185 to 190 °C
c1ccc2nc(NC3=NC[C@@]4(CN5CCC4CC5)O3)cnc2c1 [Example 220]	< 100 nM	melting point: 212 to 215 °C
c1ccc2[nH]c(NC3=NCC4(CN5CCC4CC5)O3)nc2c1 (centres unmarked) [Example 8, N-(1H-benzo[d]imidazol-2-yl)-4H-1′-azaspiro[oxazole-5,3′-bicyclo[2.2.2]octan]-2-amine]	100 to 1000 nM	melting point: 255 °C (dec.)
COc1ccc(/C=C2\CCCN=C2c2cccnc2)c(OC)c1 [GTS-21]		antigen-induced degranulation of mucosal mast cells [2]: inhibits
FC(F)COc1cc(NC2=NC[C@@]3(CN4CCC3CC4)O2)ncn1 [Example 233, (R)—N-(6-(2,2-Difluoroethoxy)pyrimidin-4-yl)-4H-1′-azaspiro[oxazole-5,3′-bicyclo[2.2.2]octan]-2-amine]	< 100 nM	melting point: 83 to 88 °C
c1ccc(-c2cnc(NC3=NCC4(CN5CCC4CC5)O3)s2)cc1 (centres unmarked) [Example 4, N-(5-Phenylthiazol-2-yl)-4H-1′-azaspiro[oxazole-5,3′-bicyclo[2.2.2]octan]-2-amine]	< 100 nM	melting point: 187 to 189 °C
CSc1cnc(NC2=NC[C@@]3(CN4CCC3CC4)O2)cn1 [Example 250, (R)—N-(5-(Methylthio)pyrazin-2-yl)-4H-1′-azaspiro[oxazole-5,3′-bicyclo[2.2.2]octan]-2-amine]	< 100 nM	melting point: 155 to 160 °C
COc1cccc(-c2cc(NC3=NC[C@@]4(CN5CCC4CC5)O3)ncn2)c1 [Example 238, (R)—N-(6-(3-Methoxyphenyl)pyrimidin-4-yl)-4H-1′-azaspiro[oxazole-5,3′-bicyclo[2.2.2]octan]-2-amine]	< 100 nM	EC50 [1, 4]: 16 nM; melting point: 80 to 85 °C
Fc1cccc2[nH]nc(NC3=NC[C@@]4(CN5CCC4CC5)O3)c12 [Example 158]	100 to 1000 nM	EC50 [1, 4]: 135 nM
COc1ccc2sc(NC3=NCC4(CN5CCC4CC5)O3)nc2c1 (centres unmarked) [Example 53]	1000 to 100000 nM	
Clc1ccc2nc(NC3=NCC4(CN5CCC4CC5)O3)sc2c1 (single isomer, unassigned) [Example 9a, N-(6-Chlorobenzo[d]thiazol-2-yl)-4H-1′-azaspiro[oxazole-5,3′-bicyclo[2.2.2]octan]-2-amine]	1000 to 100000 nM	EC50 [1, 4]: 7310 nM
c1cncc(/N=C2\NCC3(CN4CCC3CC4)O2)c1 (racemic) [Example 18, (E)-N-(1′-Azaspiro[oxazolidine-5,3′-bicyclo[2.2.2]octane]-2-ylidene)pyridin-3-amine]	1000 to 100000 nM	EC50 [1]: 3930 nM
c1ccc2oc(NC3=NC[C@@]4(CN5CCC4CC5)O3)nc2c1 [Example 288, (R)—N-(Benzo[d]oxazol-2-yl)-4H-1′-azaspiro[oxazole-5,3′-bicyclo[2.2.2]octan]-2-amine]	< 100 nM	
c1ccc(-c2cnc(NC3=NCC4(CN5CCC4CC5)O3)s2)cc1 (single isomer, unassigned) [Example 4b]	100 to 1000 nM	EC50 [1, 4]: 230 nM
c1ccc2c(NC3=NC[C@@]4(CN5CCC4CC5)O3)n[nH]c2c1 [Example 165]	< 100 nM	EC50 [1, 4]: 13 nM
c1ccc2nc(NC3=NC[C@@]4(CN5CCC4CC5)O3)ccc2c1 [Example 139]	< 100 nM	EC50 [1, 4]: 16 nM
Clc1ccc2cc(NC3=NC[C@@]4(CN5CCC4CC5)O3)ncc2c1 [Example 338B, (R)—N-(7-chloroisoquinolin-3-yl)-4H-1′-azaspiro[oxazole-5,3′-bicyclo[2.2.2]octan]-2-amine]		EC50 [1, 5]: < 100 nM
N#Cc1ccnc(NC2=NC[C@@]3(CN4CCC3CC4)O2)c1 [Example 205]	100 to 1000 nM	
Clc1cnc2nc(NC3=NC[C@@]4(CN5CCC4CC5)O3)sc2c1 [Example 339, (R)—N-(6-Chlorothiazolo[4,5-b]pyridin-2-yl)-4H-1′-azaspiro[oxazole-5,3′-bicyclo[2.2.2]octan]-2-amine]		EC50 [1, 5]: < 100 nM

Compound	EC50 [1, 3]	also measured
Oc1ccc2nc(NC3=NCC4(CN5CCC4CC5)O3)sc2c1 (single isomer, unassigned) [Example 13b]	< 100 nM	
Cc1nc(NC2=NC[C@@]3(CN4CCC3CC4)O2)ccc1C#N [Example 247, (R)-6-(4H-1′-Azaspiro[oxazole-5,3′-bicyclo[2.2.2]octane]-2-ylamino)-2-methylnicotinonitrile]	100 to 1000 nM	
FC(F)(F)c1ccc2[nH]nc(NC3=NC[C@@]4(CN5CCC4CC5)O3)c2c1 [Example 163]	< 100 nM	
Fc1ccc2c(NC3=NC[C@@]4(CN5CCC4CC5)O3)n[nH]c2c1 [Example 26, (R)—N-(6-Fluoro-1H-indazol-3-yl)-4H-1′-azaspiro[oxazole-5,3′-bicyclo[2.2.2]octan]-2-amine]	< 100 nM	
CC(C)(C)c1csc(NC2=NCC3(CN4CCC3CC4)O2)n1 (centres unmarked) [Example 110]	100 to 1000 nM	EC50 [1, 4]: 450 nM
c1cc(-c2cc(NC3=NC[C@@]4(CN5CCC4CC5)O3)ncn2)ccn1 [Example 246, (R)—N-(6-(Pyridin-4-yl)pyrimidin-4-yl)-4H-1′-azaspiro[oxazole-5,3′-bicyclo[2.2.2]octan]-2-amine]	< 100 nM	
Cc1cnn(C)c1NC1=NCC2(CN3CCC2CC3)O1 (centres unmarked) [Example 68]	1000 to 100000 nM	
Cn1nc(NC2=NC[C@@]3(CN4CCC3CC4)O2)c2ccc(OC(F)F)cc21 [Example 31, (R)—N-(6-(Difluoromethoxy)-1-methyl-1H-indazol-3-yl)-4H-1′-azaspiro[oxazole-5,3′-bicyclo[2.2.2]octan]-2-amine]	100 to 1000 nM	
Cc1nc(NC2=NC[C@@]3(CN4CCC3CC4)O2)nc(C)c1Br [Example 171]	< 100 nM	
Fc1c(Cl)ccc2cc(NC3=NC[C@@]4(CN5CCC4CC5)O3)ncc12 [Example 312, (R)—N-(7-Chloro-8-fluoroisoquinolin-3-yl)-4H-1′-azaspiro[oxazole-5,3′-bicyclo[2.2.2]octan]-2-amine]		EC50 [1, 5]: < 100 nM
c1ccc2sc(NC3=NCC4(CN5CCC4CC5)O3)nc2c1 (single isomer, unassigned) [Example 1a]	1000 to 100000 nM	
c1ccc(-c2csc(NC3=NCC4(CN5CCC4CC5)O3)n2)cc1 (centres unmarked) [Example 45]	100 to 1000 nM	
c1nc(NC2=NC[C@@]3(CN4CCC3CC4)O2)cc(OC2CCCC2)n1 [Example 231, (R)—N-(6-(Cyclopentyloxy)pyrimidin-4-yl)-4H-1′-azaspiro[oxazole-5,3′-bicyclo[2.2.2]octan]-2-amine]	100 to 1000 nM	
Cc1nc(NC2=NCC3(CN4CCC3CC4)O2)sc1C(=O)N(C)C (centres unmarked) [Example 98]	1000 to 100000 nM	
Cn1nccc1-c1cc(NC2=NC[C@@]3(CN4CCC3CC4)O2)ncn1 [Example 333, (R)—N-(6-(1-Methyl-1H-pyrazol-5-yl)pyrimidin-4-yl)-4H-1′-azaspiro[oxazole-5,3′-bicyclo[2.2.2]octan]-2-amine]		EC50 [1, 5]: < 100 nM
c1nc(NC2=NC[C@@]3(CN4CCC3CC4)O2)nc2c1CCC2 [Example 202]	< 100 nM	EC50 [1, 4]: 16 nM
Oc1ccc2nc(NC3=NCC4(CN5CCC4CC5)O3)sc2c1 (racemic) [Example 13, 2-(4H-1′-Azaspiro[oxazole-5,3′-bicyclo[2.2.2]octane]-2-ylamino)benzo[d]thiazol-6-ol]	< 100 nM	
COc1ccc(-c2cc(NC3=NC[C@@]4(CN5CCC4CC5)O3)ncn2)cc1 [Example 42, (R)—N-(6-(4-Methoxyphenyl)pyrimidin-4-yl)-4H-1′-azaspiro[oxazole-5,3′-bicyclo[2.2.2]octan]-2-amine]	< 100 nM	
Cc1cc(C)c2cnc(NC3=NC[C@@]4(CN5CCC4CC5)O3)cc2c1 [Example 295, (2R)—N-(6,8-Dimethyl-3-isoquinolinyl)-4′H-spiro[4-azabicyclo[2.2.2]octane-2,5′-[1,3]oxazol]-2′-amine]	100 to 1000 nM	
